Reference: US20230165980A1, “METHODS FOR RADIOLABELING PSMA BINDING LIGANDS AND THEIR KITS” (Novartis AG, priority 2020, published 2023)

Test: Radiochemical purity and radiochemical stability of ^68GaPSMA-11 by HPLC
Type: physicochemical
Protocol: Radiochemical Purity and Identification of ^68GaPSMA-11 by HPLC
Chromatographic Conditions
Radical Scavenger to be used for the improvement of the radiochemical stability of ^68Ga-PSMA-11, tests were performed according to a varied approach in order to consider all the parameters that may affect the radiochemical purity of the product (activity, pH, volume, amount of Gentisic Acid).
Stability tests were performed on the freeze dried product containing the final formulation. […] Kits manufactured with the final formulation, indeed, were stored at different stability conditions (2-8° C.; 25° C. and 40° C.) and were tested at different time points for API-assay, Radiochemical Purity and Radiochemical Stability of the radiolabelled product. Radiochemical Purity and Stability were assessed only eluting IRE Generator which represented the most stressful condition in terms of Radioactive Concentration (Volumic Activity).

[1] = t4 h, Gentisic Acid 0 μg, IRE 17.19 mCi, 1 mL, pH 5.24
[2] = t4 h, Gentisic Acid 200 μg, IRE 17.85 mCi, 1 mL, pH 5.22
[3] = t4 h, Gentisic Acid 200 μg, IRE 18.07 mCi, 1 mL, pH 5.25
[4] = t4 h, Gentisic Acid 200 μg, ITG 35.92 mCi, 4 mL, pH 4.83
[5] = t4 h, Gentisic Acid 400 μg, IRE 17.44 mCi, 1 mL, pH 5.13
[6] = t4 h, Gentisic Acid 400 μg, IRE 17.79 mCi, 1 mL, pH 5.11
[7] = t4 h, Gentisic Acid 400 μg, ITG 16.9 mCi, 4 mL, pH 4.85
[8] = t4 h, Gentisic Acid 400 μg, ITG 31.97 mCi, 4 mL, pH 4.81
[9] = t4 h, Gentisic Acid 1000 μg, E&Z 15.65 mCi, 5 mL, pH 3.75
[10] = t4 h, Gentisic Acid 1000 μg, IRE 17.1 mCi, 1 mL, pH 5.08
[11] = t4 h, Gentisic Acid 1000 μg, ITG 30.9 mCi, 4 mL, pH 4.87
[12] = t4 h, final formulation kit at Release, E&Z 15.65 mCi, 5 mL, pH 3.75
[13] = t4 h, final formulation kit at Release, E&Z 16.80 mCi, 5 mL, pH 3.75
[14] = t4 h, final formulation kit at Release, IRE 32.27 mCi, 1 mL, pH 4.95
[15] = t4 h, final formulation kit at Release, IRE 32.95 mCi, 1 mL, pH 5.07
[16] = t4 h, final formulation kit at Release, ITG 29.74 mCi, 4 mL, pH 4.67
[17] = t4 h, final formulation kit at Release, ITG 30.90 mCi, 4 mL, pH 4.67
[18] = t4 h, kit stored 3 months at 2-8° C., IRE 25.76 mCi, 1 mL, pH 5.29
[19] = t4 h, kit stored 3 months at 25° C., IRE 24.56 mCi, 1 mL, pH 5.16
[20] = t4 h, kit stored 3 months at 40° C., IRE 24.86 mCi, 1 mL, pH 5.23
[21] = t4 h, kit stored 6 months at 2-8° C., IRE 19.90 mCi, 1 mL, pH 5.13
[22] = t4 h, kit stored 6 months at 25° C., IRE 18.88 mCi, 1 mL, pH 5.09
[23] = t4 h, kit stored 6 months at 40° C., IRE 19.34 mCi, 1 mL, pH 5.15

Substance: ^68Ga-PSMA-11 [[^68Ga] Gallium PSMA-11]
- [^68Ga] Gallium main degradant, HPLC (t0 h, kit stored 6 months at 40° C., IRE 19.34 mCi, 1 mL, pH 5.15): 0.42%
- [^68Ga] Gallium PSMA-11 (sum of stereosiomers), HPLC [1]: 90.89%
- [^68Ga] Gallium free, HPLC [1]: 0.14%
- [^68Ga] Gallium main degradant, HPLC [1]: 7.32%
- [^68Ga] Gallium PSMA-11 (sum of stereosiomers), HPLC [2]: 97.87%
- [^68Ga] Gallium free, HPLC [2]: 0.00%
- [^68Ga] Gallium main degradant, HPLC [2]: 1.80%
- [^68Ga] Gallium PSMA-11 (sum of stereosiomers), HPLC [3]: 97.80%
- [^68Ga] Gallium free, HPLC [3]: 0.00%
- [^68Ga] Gallium main degradant, HPLC [3]: 1.74%
- [^68Ga] Gallium PSMA-11 (sum of stereosiomers), HPLC [4]: 99.72%
- [^68Ga] Gallium free, HPLC [4]: 0.00%
- [^68Ga] Gallium main degradant, HPLC [4]: 0.00%
- [^68Ga] Gallium PSMA-11 (sum of stereosiomers), HPLC [5]: 99.20%
- [^68Ga] Gallium free, HPLC [5]: 0.00%
- [^68Ga] Gallium main degradant, HPLC [5]: 0.68%
- [^68Ga] Gallium PSMA-11 (sum of stereosiomers), HPLC [6]: 98.46%
- [^68Ga] Gallium free, HPLC [6]: 0.00%
- [^68Ga] Gallium main degradant, HPLC [6]: 1.54%
- [^68Ga] Gallium PSMA-11 (sum of stereosiomers), HPLC [7]: 98.24%
- [^68Ga] Gallium free, HPLC [7]: 0.00%
- [^68Ga] Gallium main degradant, HPLC [7]: 0.00%
- [^68Ga] Gallium PSMA-11 (sum of stereosiomers), HPLC [8]: 99.57%
- [^68Ga] Gallium free, HPLC [8]: 0.00%
- [^68Ga] Gallium main degradant, HPLC [8]: 0.00%
- [^68Ga] Gallium PSMA-11 (sum of stereosiomers), HPLC [9]: 100.00%
- [^68Ga] Gallium free, HPLC [9]: 0.00%
- [^68Ga] Gallium main degradant, HPLC [9]: 0.00%
- [^68Ga] Gallium PSMA-11 (sum of stereosiomers), HPLC [10]: 99.59%
- [^68Ga] Gallium free, HPLC [10]: 0.00%
- [^68Ga] Gallium main degradant, HPLC [10]: 0.41%
- [^68Ga] Gallium PSMA-11 (sum of stereosiomers), HPLC [11]: 99.69%
- [^68Ga] Gallium free, HPLC [11]: 0.00%
- [^68Ga] Gallium main degradant, HPLC [11]: 0.06%
- [^68Ga] Gallium PSMA-11 (sum of stereosiomers), HPLC [12]: 100.00%
- [^68Ga] Gallium free, HPLC [12]: 0.00%
- [^68Ga] Gallium main degradant, HPLC [12]: 0.00%
- [^68Ga] Gallium PSMA-11 (sum of stereosiomers), HPLC [13]: 100.00%
- [^68Ga] Gallium free, HPLC [13]: 0.00%
- [^68Ga] Gallium main degradant, HPLC [13]: 0.00%
- [^68Ga] Gallium PSMA-11 (sum of stereosiomers), HPLC [14]: 98.75%
- [^68Ga] Gallium free, HPLC [14]: 0.00%
- [^68Ga] Gallium main degradant, HPLC [14]: 0.54%
- [^68Ga] Gallium PSMA-11 (sum of stereosiomers), HPLC [15]: 99.05%
- [^68Ga] Gallium free, HPLC [15]: 0.03%
- [^68Ga] Gallium main degradant, HPLC [15]: 0.42%
- [^68Ga] Gallium PSMA-11 (sum of stereosiomers), HPLC [16]: 99.82%
- [^68Ga] Gallium free, HPLC [16]: 0.00%
- [^68Ga] Gallium main degradant, HPLC [16]: 0.00%
- [^68Ga] Gallium PSMA-11 (sum of stereosiomers), HPLC [17]: 99.69%
- [^68Ga] Gallium free, HPLC [17]: 0.00%
- [^68Ga] Gallium main degradant, HPLC [17]: 0.06%
- [^68Ga] Gallium PSMA-11 (sum of stereosiomers), HPLC [18]: 99.37%
- [^68Ga] Gallium free, HPLC [18]: 0.00%
- [^68Ga] Gallium main degradant, HPLC [18]: 0.49%
- [^68Ga] Gallium PSMA-11 (sum of stereosiomers), HPLC [19]: 99.03%
- [^68Ga] Gallium free, HPLC [19]: 0.00%
- [^68Ga] Gallium main degradant, HPLC [19]: 0.38%
- [^68Ga] Gallium PSMA-11 (sum of stereosiomers), HPLC [20]: 98.20%
- [^68Ga] Gallium free, HPLC [20]: 0.00%
- [^68Ga] Gallium main degradant, HPLC [20]: 0.37%
- [^68Ga] Gallium PSMA-11 (sum of stereosiomers), HPLC [21]: 99.44%
- [^68Ga] Gallium free, HPLC [21]: 0.00%
- [^68Ga] Gallium main degradant, HPLC [21]: 0.44%
- [^68Ga] Gallium PSMA-11 (sum of stereosiomers), HPLC [22]: 99.21%
- [^68Ga] Gallium free, HPLC [22]: 0.00%
- [^68Ga] Gallium main degradant, HPLC [22]: 0.33%
- [^68Ga] Gallium PSMA-11 (sum of stereosiomers), HPLC [23]: 99.23%
- [^68Ga] Gallium free, HPLC [23]: 0.00%
- [^68Ga] Gallium main degradant, HPLC [23]: 0.46%
